Source: US12077503B2, “Substituted cyclic amides and their use as herbicides” (FMC CORPORATION, priority 2015, dated 2024)

Assays:
Format in all cases: in vivo
Kochia (Kochia scoparia) [1] = experiment: Test A preemergence; settings: Bassia scoparia, pre-emergence, 240 h, 0 to 100 scale where 0 is no effect and 100 is complete control, read-out: Kochia plant response rating
In short: (§1)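 Visual injury, scored on a 0–100 scale relative to untreated controls, was recorded about 10 d after application. Treatments were a preemergence soil spray over planted seeds or a postemergence spray on plants at the one- to two-leaf stage, 2 to 10 cm tall, all in loam soil–sand blend in the greenhouse.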

[2] = tested on: barnyardgrass (Echinochloa crus-galli); experiment: Test A preemergence; settings: Echinochloa crus-galli, pre-emergence, 240 h, 0 to 100 scale where 0 is no effect and 100 is complete control, read-out: Barnyardgrass plant response rating
In short: as §1

[3] = tested on: giant foxtail (Setaria faberii); experiment: Test A preemergence; settings: Setaria faberi, pre-emergence, 240 h, 0 to 100 scale where 0 is no effect and 100 is complete control, read-out: Foxtail, Giant plant response rating
In short: as §1

[4] = tested on: pigweed (Amaranthus retroflexus); experiment: Test A preemergence; settings: Amaranthus retroflexus, pre-emergence, 240 h, 0 to 100 scale where 0 is no effect and 100 is complete control, read-out: Pigweed plant response rating
[5] = tested on: ragweed (common ragweed, Ambrosia elatior); experiment: Test A preemergence; settings: Ambrosia artemisiifolia, pre-emergence, 240 h, 0 to 100 scale where 0 is no effect and 100 is complete control, read-out: Ragweed plant response rating
In short: as §1

[6] = tested on: ryegrass, Italian (Italian ryegrass, Lolium multiflorum); experiment: Test A preemergence; settings: Lolium multiflorum, pre-emergence, 240 h, 0 to 100 scale where 0 is no effect and 100 is complete control, read-out: Ryegrass, Italian plant response rating
In short: as §1

[7] = tested on: Galium (catchweed bedstraw, Galium aparine); experiment: Test A postemergence; settings: Galium, post-emergence, 240 h, read-out: Galium plant response rating (0 to 100 scale)
In short: as §1

Kochia (Kochia scoparia) [8] = experiment: Test A postemergence; settings: Bassia scoparia, post-emergence, 240 h, read-out: Kochia plant response rating (0 to 100 scale)
In short: as §1

[9] = tested on: barnyardgrass (Echinochloa crus-galli); experiment: Test A postemergence; settings: Echinochloa crus-galli, post-emergence, 240 h, read-out: Barnyardgrass plant response rating (0 to 100 scale)
In short: as §1

[10] = tested on: blackgrass (Alopecurus myosuroides); experiment: Test A postemergence; settings: Alopecurus myosuroides, post-emergence, 240 h, read-out: Blackgrass plant response rating (0 to 100 scale)
In short: as §1

corn (Zea mays) = experiment: Test A postemergence; settings: Zea mays, post-emergence, 240 h, read-out: Corn plant response rating (0 to 100 scale)
In short: as §1

[11] = tested on: giant foxtail (Setaria faberii); experiment: Test A postemergence; settings: Setaria faberi, post-emergence, 240 h, read-out: Foxtail, Giant plant response rating (0 to 100 scale)
In short: as §1

[12] = tested on: pigweed (Amaranthus retroflexus); experiment: Test A postemergence; settings: Amaranthus retroflexus, post-emergence, 240 h, read-out: Pigweed plant response rating (0 to 100 scale)
In short: as §1

[13] = tested on: ragweed (common ragweed, Ambrosia elatior); experiment: Test A postemergence; settings: Ambrosia artemisiifolia, post-emergence, 240 h, read-out: Ragweed plant response rating (0 to 100 scale)
In short: as §1

[14] = tested on: ryegrass, Italian (Italian ryegrass, Lolium multiflorum); experiment: Test A postemergence; settings: Lolium multiflorum, post-emergence, 240 h, read-out: Ryegrass, Italian plant response rating (0 to 100 scale)
In short: as §1

[15] = tested on: wheat (Triticum aestivum); experiment: Test A postemergence; settings: Triticum aestivum, post-emergence, 240 h, Postemergence, 31 g ai/ha; 0 is no effect, 100 is complete control; read-out: Wheat plant response rating (0 to 100 scale)
In short: as §1

[16] = tested on: barnyardgrass (Echinochloa crus-galli); experiment: Test B flooded paddy test; settings: Echinochloa crus-galli, 250 g ai/ha, Flood; 0 to 100 scale where 0 is no effect and 100 is complete control; read-out: Barnyardgrass plant response rating
In short: (§2)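 Compound goes directly into floodwater once pots are flooded 3 cm above soil, targeting plants at two leaves; the water depth is then held for the test duration. Plants sit 13–15 d in a greenhouse and are rated visually, 100 denoting complete control.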

[17] = tested on: ducksalad (Heteranthera limosa); experiment: Test B flooded paddy test; settings: Heteranthera limosa, 250 g ai/ha, Flood; 0 to 100 scale where 0 is no effect and 100 is complete control; read-out: Ducksalad plant response rating
In short: as §2

rice (Oryra sativa) = experiment: Test B flooded paddy test; settings: Oryza sativa, 250 g ai/ha, Flood; 0 to 100 scale where 0 is no effect and 100 is complete control; read-out: Rice plant response rating
In short: as §2

[18] = tested on: sedge, umbrella (small-flower umbrella sedge, Cyperus difformis); experiment: Test B flooded paddy test; settings: Cyperus difformis, 250 g ai/ha, Flood; 0 to 100 scale where 0 is no effect and 100 is complete control; read-out: Sedge, Umbrella plant response rating
In short: as §2

[19] = 125 g ai/ha, preemergence, visual injury rating, approximately 10 d
[20] = 125 g ai/ha, postemergence, visual injury vs untreated controls after approx. 10 d, 0 = no effect, 100 = complete control
[21] = Postemergence, 31 g ai/ha, 0 is no effect, 100 is complete control

Cc1c(F)cccc1NC(=O)[C@H]1C(=O)N(C)C[C@@H]1c1ccc(C(F)F)cc1 [Compound 1261]
0%: pest or weed control at 31 g/ha ([4]; 31 g ai/ha, Preemergence) | pest or weed control at 31 g/ha [12, 21] | pest or weed control at 31 g/ha [13, 21] | pest or weed control at 250 g/ha [18]
20%: pest or weed control at 125 g/ha [4, 19] | pest or weed control at 31 g/ha ([6]; 31 g ai/ha, Preemergence) | pest or weed control at 31 g/ha (Kochia (Kochia scoparia) [8]; [21]) | pest or weed control at 31 g/ha [14, 21] | plant injury at 31 g/ha [15]
100%: pest or weed control at 250 g/ha [17]
90%: pest or weed control at 31 g/ha ([2]; 31 g ai/ha, Preemergence) | pest or weed control at 125 g/ha [2, 19] | pest or weed control at 31 g/ha ([3]; 31 g ai/ha, Preemergence) | pest or weed control at 125 g/ha [3, 19] | pest or weed control at 125 g/ha [9, 20] | pest or weed control at 31 g/ha [9, 21] | pest or weed control at 125 g/ha [11, 20] | pest or weed control at 31 g/ha [11, 21]
70%: pest or weed control at 31 g/ha (Kochia (Kochia scoparia) [1]; 31 g ai/ha, Preemergence)
60%: pest or weed control at 125 g/ha [7, 20] | pest or weed control at 125 g/ha [10, 20]
75%: pest or weed control at 250 g/ha [16]
30%: pest or weed control at 125 g/ha [6, 19] | pest or weed control at 125 g/ha [12, 20] | pest or weed control at 125 g/ha [13, 20]
50%: pest or weed control at 31 g/ha ([5]; 31 g ai/ha, Preemergence) | pest or weed control at 125 g/ha [5, 19] | pest or weed control at 31 g/ha [7, 21] | pest or weed control at 125 g/ha (Kochia (Kochia scoparia) [8]; [20]) | plant injury at 31 g/ha (corn (Zea mays); [21]) | pest or weed control at 125 g/ha [14, 20] | pest or weed control at 250 g/ha (rice (Oryra sativa))
40%: pest or weed control at 31 g/ha [10, 21]
80%: pest or weed control at 125 g/ha (Kochia (Kochia scoparia) [1]; [19]) | plant injury at 125 g/ha (corn (Zea mays); [20])
